The values below come from ChEMBL document CHEMBL5150008, “Fragment-Guided Discovery of Pyrazole Carboxylic Acid Inhibitors of the Kelch-like ECH-Associated Protein 1: Nuclear Factor Erythroid 2 Related Factor 2 (KEAP1:NRF2) Protein-Protein Interaction” (J Med Chem, 2021).

Data set [1] is described as follows: Lipophilicity, logD of compound at pH 2 to 10.5 by reversed-phase HPLC. It is filed as physicochemical.
Data set [2] is described as follows: Permeability in artificial phospholipid membrane by AMPA based HPLC/UV analysis. The format is ADME, cell membranes. The conditions noted are these: not told; read-out: permeability.
Data set [3] addresses T1, Keap1/Nrf2 (Homo sapiens, UniProt Q16236+Q14145). As to the kind of experiment: Inhibition of 5'-TAMRA tagged NRF2 (unknown origin)/human recombinant N-terminal Avi tagged KEAP-1 (321 to 609 residues) expressed in Baculovirus system infected in Sf9 cells protein-protein interaction at 0.015 uM by fluorescence polarisation assay relative to control.
Target sequence in this assay (Q14145 whole entry, looked up, the tested form may be a part): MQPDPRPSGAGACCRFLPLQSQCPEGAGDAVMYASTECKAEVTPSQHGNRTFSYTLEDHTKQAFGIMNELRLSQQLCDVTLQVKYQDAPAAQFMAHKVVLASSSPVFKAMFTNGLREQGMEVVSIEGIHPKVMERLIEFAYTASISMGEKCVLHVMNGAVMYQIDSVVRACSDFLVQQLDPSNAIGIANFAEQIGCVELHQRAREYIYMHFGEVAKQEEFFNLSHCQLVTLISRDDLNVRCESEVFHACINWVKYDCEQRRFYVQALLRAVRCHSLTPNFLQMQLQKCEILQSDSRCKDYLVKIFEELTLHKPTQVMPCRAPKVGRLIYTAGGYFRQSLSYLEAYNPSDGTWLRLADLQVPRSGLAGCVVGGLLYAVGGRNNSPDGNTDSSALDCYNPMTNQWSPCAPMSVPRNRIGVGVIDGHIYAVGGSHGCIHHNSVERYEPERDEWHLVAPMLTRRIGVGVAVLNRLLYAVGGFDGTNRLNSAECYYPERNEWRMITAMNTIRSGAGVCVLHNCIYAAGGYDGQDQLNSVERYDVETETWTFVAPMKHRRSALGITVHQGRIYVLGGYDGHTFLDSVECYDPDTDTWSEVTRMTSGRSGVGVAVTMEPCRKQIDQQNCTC
Target sequence in this assay (Q16236 whole entry, looked up, the tested form may be a part): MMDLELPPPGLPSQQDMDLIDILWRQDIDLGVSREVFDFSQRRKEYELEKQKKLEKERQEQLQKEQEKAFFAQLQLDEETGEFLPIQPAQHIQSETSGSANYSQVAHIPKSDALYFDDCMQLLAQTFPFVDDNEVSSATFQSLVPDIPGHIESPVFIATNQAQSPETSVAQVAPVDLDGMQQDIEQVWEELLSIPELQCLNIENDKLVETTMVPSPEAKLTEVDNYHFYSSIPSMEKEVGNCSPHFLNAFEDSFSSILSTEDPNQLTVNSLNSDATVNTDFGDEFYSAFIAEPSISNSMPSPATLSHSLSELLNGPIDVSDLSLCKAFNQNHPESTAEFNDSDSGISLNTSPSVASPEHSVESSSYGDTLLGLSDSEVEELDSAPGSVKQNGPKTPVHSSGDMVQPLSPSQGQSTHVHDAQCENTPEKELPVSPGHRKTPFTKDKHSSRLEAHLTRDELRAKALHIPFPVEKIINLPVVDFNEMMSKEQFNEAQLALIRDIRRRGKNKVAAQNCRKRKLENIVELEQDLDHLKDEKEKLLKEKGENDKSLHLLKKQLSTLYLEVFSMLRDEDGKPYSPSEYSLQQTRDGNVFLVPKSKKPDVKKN
Data set [4] has as its target Keap1/Nrf2 (Homo sapiens, UniProt Q14145). As to the kind of experiment: (§1) Inhibition of 5'-TAMRA tagged NRF2 (unknown origin)/human recombinant N-terminal Avi tagged KEAP-1 (321 to 609 residues) expressed in Baculovirus system infected in Sf9 cells protein-protein interaction by fluorescence polarisation assay.
In data set [5] the target is T1, Keap1/Nrf2. As to the kind of experiment: Inhibition of 5'-TAMRA tagged NRF2 (unknown origin)/human recombinant N-terminal Avi tagged KEAP-1 (321 to 609 residues) expressed in Baculovirus system infected in Sf9 cells protein-protein interaction at 0.1 uM by fluorescence polarisation assay relative to control.
Target sequence in this assay (Q14145 whole entry, looked up, the tested form may be a part): as the sequence (Q14145 whole entry, looked up, the tested form may be a part) above
Target sequence in this assay (Q16236 whole entry, looked up, the tested form may be a part): as the sequence (Q16236 whole entry, looked up, the tested form may be a part) above
Data set [6] concerns the target T1, Keap1/Nrf2. As to the kind of experiment: Inhibition of 5'-TAMRA tagged NRF2 (unknown origin)/human recombinant N-terminal Avi tagged KEAP-1 (321 to 609 residues) expressed in Baculovirus system infected in Sf9 cells protein-protein interaction at 0.05 uM by fluorescence polarisation assay relative to control.
Target sequence in this assay (Q14145 whole entry, looked up, the tested form may be a part): as the sequence (Q14145 whole entry, looked up, the tested form may be a part) above
Target sequence in this assay (Q16236 whole entry, looked up, the tested form may be a part): as the sequence (Q16236 whole entry, looked up, the tested form may be a part) above
Data set [7] concerns the target T1, Keap1/Nrf2. As to the kind of experiment: Inhibition of 5'-TAMRA tagged NRF2 (unknown origin)/human recombinant N-terminal Avi tagged KEAP-1 (321 to 609 residues) expressed in Baculovirus system infected in Sf9 cells protein-protein interaction at 0.03 uM by fluorescence polarisation assay relative to control.
Data set [8] addresses T1, Keap1/Nrf2. Described as §1.
Target sequence in this assay (Q14145 whole entry, looked up, the tested form may be a part): as the sequence (Q14145 whole entry, looked up, the tested form may be a part) above
Target sequence in this assay (Q16236 whole entry, looked up, the tested form may be a part): as the sequence (Q16236 whole entry, looked up, the tested form may be a part) above

Sequence of Keap1/Nrf2 (Homo sapiens, UniProt Q14145) (Q16236 whole entry, the tested form may be a part): as the sequence (Q16236 whole entry, looked up, the tested form may be a part) above
Sequence of Keap1/Nrf2 (Homo sapiens, UniProt Q14145) (Q14145 whole entry, the tested form may be a part): as the sequence (Q14145 whole entry, looked up, the tested form may be a part) above

On to `CCCC1CCCCN1C(=O)c1cccc(-c2cccc(-n3ncc(C(=O)O)c3C3CC3c3cn(C)nn3)c2)c1` (mixture of isomers), for which the chromatographic logD in data set [1] was 2.9. Moreover, the Papp in data set [2] worked out at 3.7 ×10⁻⁶ cm/s. Further, the inhibition at Keap1/Nrf2 [3] worked out at 84%.
For the compound `CC(=O)N1CCC(c2c(C(=O)O)cnn2-c2cccc(-c3cccc(C(=O)N(C)C)c3)c2)CC1`, on Keap1/Nrf2 [4] (read-out: IC50), the IC50 worked out at 3.5 µM.
Regarding `O=C(O)c1cnn(-c2ccccn2)c1C(F)(F)F`, at Keap1/Nrf2 [4] (read-out: IC50), the IC50 was > 1000 µM.
For `O=C(O)c1cnn(-c2cccc(-c3cccc(C(=O)N4CCCCC4)c3F)c2)c1C1CC1`, in data set [1], the chromatographic logD is 2.3. In addition, in data set [2], the Papp is < 0.3 ×10⁻⁶ cm/s. The IC50 is 0.12 µM at Keap1/Nrf2 [4] (read-out: IC50) and < 1 µM on Keap1/Nrf2 [4] (read-out: pIC50 (converted)).
As to `CN(C)C(=O)c1cccc(-c2cccc(-n3ncc(C(=O)O)c3C3CCCCC3)c2)c1`, at Keap1/Nrf2 [4] (read-out: IC50), the IC50 is 1.8 µM.
In data set [1], `CN(CC1CC1)C(=O)c1cccc(-c2cccc(-n3ncc(C(=O)O)c3C3CC3)c2)c1F` returned a chromatographic logD of 2.2. Also, the Papp in data set [2] came to 0.3 ×10⁻⁶ cm/s. The IC50 on Keap1/Nrf2 [4] (read-out: pIC50 (converted)) was < 1 µM. Besides, the inhibition on Keap1/Nrf2 [5] is 50%.
For the compound `CCCC1CCCCN1C(=O)C1CCCC(c2cccc(-n3ncc(C(=O)O)c3C3CC3)c2)C1` (mixture of isomers), the chromatographic logD in data set [1] was 4.1. Also, the Papp in data set [2] was 1.1 ×10⁻⁶ cm/s. Moreover, the IC50 at Keap1/Nrf2 [4] (read-out: IC50) was determined as 0.23 µM.
In the case of `O=C(O)c1cnn(-c2cccc(-c3cccc(CNS(=O)(=O)c4ccccc4)c3)c2)c1C(F)(F)F`, the IC50 on Keap1/Nrf2 [4] (read-out: IC50) turned out to be 45 µM.
With `CCC[C@@H]1CCCCN1C(=O)c1cccc(-c2cccc(-n3ncc(C(=O)O)c3C3CC3)c2)c1F`, in data set [1], the chromatographic logD is 3.5. Further, the Papp in data set [2] was 2.7 ×10⁻⁶ cm/s. Further, on Keap1/Nrf2 [3], the inhibition amounted to 52%.
For `CN(C)C(=O)c1ccnc(-c2cccc(-n3ncc(C(=O)O)c3C(F)(F)F)c2)c1`, on Keap1/Nrf2 [4] (read-out: IC50), the IC50 is 7.5 µM.
Take `CCCC1COCCN1C(=O)c1cccc(-c2cccc(-n3ncc(C(=O)O)c3C3CC3)c2)c1F` (stereo not given): the chromatographic logD in data set [1] is 2.5. Moreover, the inhibition on Keap1/Nrf2 [6] was found to be 72%; at Keap1/Nrf2 [7], 60%. The Papp in data set [2] stood at 1.1 ×10⁻⁶ cm/s.
Consider `CCC[C@H]1CCCCN1C(=O)c1cccc(-c2cccc(-n3ncc(C(=O)O)c3C3CC3)c2)c1F`, for which the chromatographic logD in data set [1] was 3.5. In addition, in data set [2], the Papp is 6.3 ×10⁻⁶ cm/s. At Keap1/Nrf2 [4] (read-out: IC50), the IC50 was determined as 0.06 µM.
Consider `CCCCC1CCCN1C(=O)C1CCCC(c2cccc(-n3ncc(C(=O)O)c3C3CC3)c2)C1` (mixture of isomers), for which, in data set [1], the chromatographic logD came out at 4.4. Further, in data set [2], the Papp was 2.7 ×10⁻⁶ cm/s. Also, the inhibition on Keap1/Nrf2 [7] is 64%.
Consider `CCCC[C@@H]1CCCN1C(=O)[C@H]1CCC[C@@H](c2cccc(-n3ncc(C(=O)O)c3C3CC3)c2)C1`, for which the chromatographic logD in data set [1] was found to be 4.3. Besides, in data set [2], the Papp is 1.6 ×10⁻⁶ cm/s. Also, the inhibition on Keap1/Nrf2 [3] was 81%.
In data set [1], `CN(C)C(=O)[C@H]1CCC[C@@H](c2cccc(-n3ncc(C(=O)O)c3C3CC3)c2)C1` (racemic) displayed a chromatographic logD of 1.7. In addition, the Papp in data set [2] is < 0.3 ×10⁻⁶ cm/s. The IC50 on Keap1/Nrf2 [4] (read-out: IC50) was 0.24 µM; at Keap1/Nrf2 [4] (read-out: pIC50 (converted)), < 1 µM.
Take `CN(C)C(=O)c1cccc(-c2cccc(-n3ncc(C(=O)O)c3-c3cccnc3)c2)c1`: the IC50 on Keap1/Nrf2 [4] (read-out: IC50) turned out to be 2 µM.
Compound `CCC[C@@H]1CCCCN1C(=O)c1cccc(-c2cccc(-n3ncc(C(=O)O)c3[C@@H]3C[C@H]3c3cn(C)nn3)c2)c1` showed a chromatographic logD in data set [1] of 3. The Papp in data set [2] is 1.7 ×10⁻⁶ cm/s. Also, the IC50 on Keap1/Nrf2 [8] came to 0.56 µM.
With `CN(C)C(=O)c1cncc(-c2cccc(-n3ncc(C(=O)O)c3C(F)(F)F)c2)c1`, on Keap1/Nrf2 [4] (read-out: IC50), the IC50 turned out to be 3.7 µM.
Still for that read-out and setting: as for `O=C(O)c1cnn(-c2cccc(NS(=O)(=O)c3ccccc3)c2)c1C(F)(F)F`, the figure is 4.6 µM.
For `O=C(O)c1cnn(-c2cccc([C@@H]3CCC[C@H](C(=O)N4CCCCC4)C3)c2)c1C1CC1` (racemic), the chromatographic logD in data set [1] is 2.7. Also, the Papp in data set [2] was < 0.3 ×10⁻⁶ cm/s. The IC50 on Keap1/Nrf2 [4] (read-out: IC50) was found to be 0.3 µM.
For `CN(C)C(=O)c1cccc(-c2cccc(-n3ncc(C(=O)O)c3C(C)(C)C)n2)c1`, the IC50 at Keap1/Nrf2 [4] (read-out: IC50) stood at 10 µM.
Compound `CN(C)C(=O)c1cccc(-c2cccc(-n3ncc(C(=O)O)c3C3CC3)c2)c1F` yielded a chromatographic logD in data set [1] of 1.3. Further, in data set [2], the Papp was < 0.3 ×10⁻⁶ cm/s. Besides, the IC50 was > 10 µM at Keap1/Nrf2 [4] (read-out: IC50) and < 1 µM on Keap1/Nrf2 [4] (read-out: pIC50 (converted)).
Regarding `CN(C)C(=O)c1cccc(-c2cccc(-n3ncc(C(=O)O)c3C3CCCC3)c2)c1`, the IC50 on Keap1/Nrf2 [4] (read-out: IC50) is 1 µM.
`CN(C)C(=O)c1cccc(-c2cccc(-n3ncc(C(=O)O)c3C3CC3c3cn(C)nn3)c2)c1` (racemic) gave a chromatographic logD in data set [1] of 0.8. For the same compound, the Papp in data set [2] was < 0.3 ×10⁻⁶ cm/s. Moreover, the IC50 is 0.041 µM at Keap1/Nrf2 [4] (read-out: IC50) and < 1 µM at Keap1/Nrf2 [4] (read-out: pIC50 (converted)). On Keap1/Nrf2 [7], the inhibition was determined as 53%.
Consider `CN(C)C(=O)c1cccc(-c2cccc(-n3ncc(C(=O)O)c3C(F)(F)F)n2)c1`, for which the IC50 at Keap1/Nrf2 [4] (read-out: IC50) came out at 1 µM.
In turn, `CN(C)C(=O)c1cccc(-c2cccc(-n3ncc(C(=O)O)c3C3CC3)c2)c1` displayed a chromatographic logD in data set [1] of 1.4. The Papp in data set [2] was < 0.3 ×10⁻⁶ cm/s. For the same compound, the IC50 on Keap1/Nrf2 [4] (read-out: IC50) is 0.37 µM; at Keap1/Nrf2 [4] (read-out: pIC50 (converted)), < 1 µM.
As to `O=C(O)c1cnn(-c2ccccc2)c1C(F)(F)F`, the IC50 at Keap1/Nrf2 [4] (read-out: IC50) was > 300 µM.
Regarding `CC(C)Oc1cccc(-c2cccc(-n3ncc(C(=O)O)c3C(F)(F)F)n2)c1`, the IC50 at Keap1/Nrf2 [4] (read-out: IC50) amounted to 8.5 µM.
Compound `O=C(O)c1cnn(-c2cccc(-c3cccc(C(=O)N4CCCC5(CCCC5)C4)c3F)c2)c1C1CC1` displayed a chromatographic logD in data set [1] of 3.7. The Papp in data set [2] turned out to be 1.2 ×10⁻⁶ cm/s. For the same compound, the inhibition at Keap1/Nrf2 [3] is 50%.
Compound `O=C(O)c1cnn(-c2cccc(-c3cccc(C(=O)N(CC4CC4)CC4CC4)c3F)c2)c1C1CC1` registered a chromatographic logD in data set [1] of 3.5. The Papp in data set [2] came out at 1.6 ×10⁻⁶ cm/s. For the same compound, the inhibition on Keap1/Nrf2 [7] was 46%.
In data set [1], `CCCC1CCCCN1C(=O)c1cccc(-c2cccc(-n3ncc(C(=O)O)c3C3CC3c3cccnc3)c2)c1` (mixture of isomers) registered a chromatographic logD of 3.9. Further, in data set [2], the Papp stood at 13 ×10⁻⁶ cm/s. Further, the IC50 on Keap1/Nrf2 [4] (read-out: IC50) was determined as 0.221 µM.
`CCC[C@@H]1CCCCN1C(=O)c1cccc(-c2cccc(-n3ncc(C(=O)O)c3[C@H]3C[C@@H]3c3cn(C)nn3)c2)c1` yielded a chromatographic logD in data set [1] of 3. The Papp in data set [2] came to 1.6 ×10⁻⁶ cm/s. Also, the inhibition on Keap1/Nrf2 [3] is 98%.
Regarding `CCCC1CCCCN1C(=O)c1cccc(-c2cccc(-n3ncc(C(=O)O)c3C3CC3c3ccccn3)c2)c1` (mixture of isomers), the chromatographic logD in data set [1] came to 3.1. Moreover, in data set [2], the Papp was 4 ×10⁻⁶ cm/s. For the same compound, the inhibition on Keap1/Nrf2 [7] worked out at 42%.
In data set [1], `CCCC1CCCCN1C(=O)c1cccc(-c2cccc(-n3ncc(C(=O)O)c3C3CC3c3cccnn3)c2)c1` (mixture of isomers) came in with a chromatographic logD of 2.9. The Papp in data set [2] stood at 1.7 ×10⁻⁶ cm/s. Also, the inhibition at Keap1/Nrf2 [3] worked out at 50%.
Consider `CN(C)C(=O)c1cccc(-c2cccc(-n3ncc(C(=O)O)c3C(F)(F)F)c2)c1`, for which, at Keap1/Nrf2 [4] (read-out: IC50), the IC50 stood at 0.48 µM.
